Assay results as given in PMC9646836, “Tetrahydroquinolinone derivatives exert antiproliferative effect on lung cancer cells through apoptosis induction” (Scientific Reports, 2022).

Key:
HepG2 = test: MTT cell viability assay, HepG2; type: cell-based; conditions: Homo sapiens, HepG2, 72 h, mean ± SD, n = 3
Description: (§1) All new tetrahydroquinoline derivatives were assessed for cytotoxicity on a broad panel of cancer and normal cell lines, using the MTT assay. The half-inhibitory growth inhibitory concentration (IC50) values of each compound were calculated after 72 h of treatment and presented in Table 1. […] In this assay, the IC50 value of 5-FU and ETP was recorded as a positive control.
(§2) Non-small cell lung cancer cells A549 (CCL-185), breast cancer cells MCF-7 ([…]), hepatocarcinoma cells HepG2 ([…]), normal kidney cells HEK293 (CRL-1573), and osteosarcoma cells U-2 OS (HTB-96) were obtained from the American Type Culture Collection. HCT-116 cell line was kindly provided by prof. Bert Vogelstein (Johns Hopkins University, Howard Hughes Medical Institute, USA). The obtained A549 and MCF-7 cells were cultured in RPMI-1640 medium, HepG2 cells in Minimum Essential Medium Eagle medium, HEK-293 cells in Dulbecco’s Modified Eagle’s medium, and U-2 OS and HCT-116 cells in McCoy’s […] medium. All culture media were supplemented with 10% fetal bovine serum, 2 mM L-glutamine, and antibiotics (penicillin 62.6 µg/ml and streptomycin 40 µg/ml; Sigma-Aldrich). Both cancer and normal cells were cultured at 37 °C under a humidified atmosphere with 5% or 10% CO2 and routinely screened for Mycoplasma contamination. All materials and reagents were obtained from Corning unless stated otherwise.
(§3) The cytotoxic effect of the synthesized compounds was assessed by the MTT (4,5-dimethylthiazol-2-yl-2,5-diphenyltetrazoliumbromide; Sigma-Aldrich) assay. Briefly, the cells were seeded into 96-well transparent flat-bottom plates and allowed to attach overnight. On the next day, the cells were treated with compounds in the range of 0–50 µM for 72 h. Dimethyl sulfoxide (DMSO; Merck) and 5-fluorouracil (5-FU; Sigma-Aldrich) were used as a reference. After exposure to the compounds, 20 μl of the MTT solution at a concentration of 4 mg/ml was added to each well, and the plates were incubated again for 2–3 h at 37 °C. Next, the media in the wells was replaced with 100 μl DMSO to solubilize the formazan crystals. The absorbance was measured at 540 nm using an ASYS UVM340 microplate reader (Biochrom Ltd.). The IC50 value of the compounds was calculated using GraphPad Prism 9 software, based on the curves plotted with survival as a function of dose, averaged from three independent experiments.

HEK293 = test: MTT cell viability assay, HEK293 normal kidney cells; type: cell-based, human
Description: as §1, §2, §3

A549 cells [1] = test: Colony formation assay; type: cell-based, human; conditions: A549, 24 h pretreatment, 9 days culture, vs DMSO-treated control
Description: HCT-116 and A549 cells were seeded into six-well plates at a density of 500 cells per well and allowed to attach overnight. On the next day, the cells were pretreated with compound 4a at different concentrations or with 1% v/v DMSO for 24 h. After incubation, the cells were washed and cultured for 9 days. Next, the cells were fixed with methanol for 20 min and stained with 0.5% crystal violet (Sigma-Aldrich). Finally, the plates were dried overnight and imaged using a UVITEC Cambridge imaging system. Quantification was performed with ImageJ software. The surviving fraction was calculated as previously described. Each experiment was repeated three times.

A549 cells [2] = test: Cell cycle progression (propidium iodide, flow cytometry); type: cell-based, human; conditions: A549, IC50 concentration
Description: A549 and HCT-116 cells were incubated with the tested compounds at their IC50 concentrations for 24, 48, and 72 h. DMSO (1% v/v) was used as a reference (Sigma-Aldrich). After incubation, the cells were collected in trypsin, fixed with 75% ice-cold ethanol, and stored overnight at − 20 °C. Then, the cells were stained with 20 μg/ml propidium iodide (Sigma-Aldrich) and 50 μg/ml RNaseA (Thermo Fisher Scientific) in phosphate-buffered saline (PBS) for 30 min at room temperature (RT). The content of DNA in cells was determined by flow cytometry (Guava EasyCyte 8 cell sorter; Merck Millipore) using FlowJo software v10. Each experiment was repeated three times.

SMILES: O=c1[nH]c2c(c(-c3ccccc3)c1Cc1cccc3ccccc13)CCCC2 [Compound 4a, 3-(1-naphthylmethyl)-4-phenyl-5,6,7,8-tetrahydro-1H-quinolin-2-one]
- IC50 (HepG2): > 50 µM
- IC50 (HEK293; Homo sapiens, HEK293, MTT, 72 h, normal kidney cells, mean ± SD, n = 3): 49 ± 2.21 µM
- suppressive effect on human normal HEK293 kidney cells (HEK293; tested concentrations, compared to A549 and HCT-116): almost no suppressive effect
- number of observed colonies (A549 cells [1]): significantly decreased
- fraction of cells at the G0/G1 phase (A549 cells [2]): time-dependent decrease
- fraction of cells in sub-G0 phase (A549 cells [2]): concomitant increase
- fraction of cells in G2 phase (A549 cells [2]; 24 h (DMSO 3.2%)): 15.5%
- fraction of cells in G2 phase (A549 cells [2]; 48 h (DMSO 3.2%)): 33.8%
